Measured values taken from patent US10966978B2, “Dose and regimen for HDM2-p53 interaction inhibitors” (Novartis AG, priority 2016, dated 2021).
Read-outs that look alike come from different tables or passages of the source.

Experiment: Clinical PK of HDM201 in patients (non-compartmental and population PK), study HDM201X2101
Format: in vivo, human
Details: for Cmax: read-out: Cmax, Geo Mean (% CV); for AUC(0-t): read-out: AUClast (0-24 h), Geo Mean (% CV); for dose proportionality of PK (AUClast and Cmax): over the dose range studied, single and repeated doses
Description: Pharmacokinetic data have been evaluated throughout the course of the dose escalation. Two HDM201 drug variants have been evaluated during the course of the study (refer to the protocol for further details). […] Furthermore, an integrated analysis of all available HDM201 concentrations was conducted using a population approach. The PK of HDM201 was best described by a 1-compartment PK model with a delayed zero- and first-order absorption process, and a linear clearance. Body weight was identified as a statistically significant covariate on apparent central volume of distribution (Vc/F), in which Vc/F increased with increasing body weight.
Inter-patient variability (CV % Geo-mean) in exposure was generally low to moderate. Compartmental population PK modeling of NVP-HDM201 was used to estimate the individual average plasma concentration for Cycle 1 and to allow comparison with preclinical average concentration for tumor stasis derived by PK/PD tumor growth modeling.
The PK of HDM201 have been evaluated in the ongoing single agent Phase I clinical trial in patients with solid tumors and hematological malignancies (HDM201X2101). Patients have been treated with a single dose on Day 1 in a three-week cycle (q3w, regimen 1A), with a single dose on Day 1 and Day 8 in a four-week cycle (d1 and d8 of 4 w cycle, regimen 1B), or with daily dosing for the first 7 or 14 days in a four-week cycle (regimen 2C [q.d., 1 w on/3 w off] or regimen 2A [q.d., 2 w on/2 w off], respectively). PK assessments were conducted following single dose and repeated administration. Preliminary PK parameters from non-compartmental analysis of plasma concentration-time profiles are summarized by dose regimen and tumor type (data cut-off 1 Apr. 2016). PK parameters for Regimen 2A (Day 1 and 14 of Cycle 1 for doses from 1 to 20 mg) and Regimen 1A (Day 1 of Cycle 1 for doses from 12.5 to 350 mg) in solid tumor patients are summarized as representative of the PK for daily and less frequent dosing regimens (Tables 9, 10 and 11).
Following oral dosing (HDM201 capsule, fasted), the median time to reach maximum plasma concentrations ranged from 2.0 to 5.8 h across the dose range (2 to 350 mg). With the daily dosing regimen, HDM201 steady-state was generally reached by Day 8, and accumulation was less than 2-fold. […]
Furthermore, the individual PK data was best described by a 1-compartment PK model with a delayed zero- and first-order absorption process (data cut-off 1 Apr. 2016). […] Body weight was identified as a statistically significant covariate on Vc/F.

[1] = Regimen 1A 12.5 mg, Day 1 single dose, solid malignancies, N = 1
[2] = Regimen 1A 25 mg, Day 1 single dose, solid malignancies, N = 1
[3] = Regimen 1A 50 mg, Day 1 single dose, solid malignancies, N = 4
[4] = Regimen 1A 100 mg, Day 1 single dose, solid malignancies, N = 4
[5] = Regimen 1A 200 mg, Day 1 single dose, solid malignancies, N = 5
[6] = Regimen 2A 1 mg daily, Day 14, solid malignancies, N = 1
[7] = Regimen 2A 2 mg daily, Day 14, solid malignancies, N = 2
[8] = Regimen 2A 4 mg daily, Day 14, solid malignancies, N = 3
[9] = Regimen 2A 15 mg daily, Day 14, solid malignancies, N = 4
[10] = Regimen 2A 15 mg, Day 1 single dose, solid malignancies, N = 4
[11] = human, plasma, oral, 7.5 mg, Regimen 2A 7.5 mg daily, Day 14, solid malignancies, N = 2
[12] = human, plasma, oral, 20 mg, Regimen 2A 20 mg daily, Day 14, solid malignancies, N = 4
[13] = human, plasma, oral, 20 mg, Regimen 2A 20 mg, Day 1 single dose, solid malignancies, N = 5
[14] = human, plasma, oral, 250 mg, Regimen 1A 250 mg, Day 1 single dose, solid malignancies, N = 6
[15] = human, plasma, oral, 350 mg, Regimen 1A 350 mg, Day 1 single dose, solid malignancies, N = 5

With `COc1ncc(-c2nc3c(n2C(C)C)[C@H](c2ccc(Cl)cc2)N(c2cc(Cl)cn(C)c2=O)C3=O)c(OC)n1` [HDM201, (S)-5-(5-Chloro-1-methyl-2-oxo-1,2-dihydro-pyridin-3-yl)-6-(4-chloro-phenyl)-2-(2,4-dimethoxy-pyrimidin-5-yl)-1-isopropyl-5,6-dihydro-1H-pyrrolo[3,4-d]imidazol-4-one] the “AUClast (0-24 h), Geo Mean (% CV)” value [1] was 1483.1 ng·h/mL, the “Cmax, Geo Mean (% CV)” value [1] was 118.0 ng/mL and the “T½, Geo Mean (% CV)” value [1] was 7.2 h. The “AUClast (0-24 h), Geo Mean (% CV)” value [2] was 1773.6 ng·h/mL, the “T½, Geo Mean (% CV)” value [2] was 31.1 h and the “AUClast (0-24 h), Geo Mean (% CV)” value [3] was 8028.8 (25.6) ng * hr/mL. The “Cmax, Geo Mean (% CV)” value [3] was 467.0 (13.0) ng/mL, the “AUClast (0-24 h), Geo Mean (% CV)” value [4] was 14287.0 (58.5) ng * hr/mL and the “Cmax, Geo Mean (% CV)” value [4] was 663.3 (30.1) ng/mL. The “AUClast (0-24 h), Geo Mean (% CV)” value [5] was 26255.2 (56.2) ng * hr/mL, the “Cmax, Geo Mean (% CV)” value [5] was 1168.8 (43.7) ng/mL and the “AUClast (0-24 h), Geo Mean (% CV)” value [6] was 99.5 ng·h/mL. The “Cmax, Geo Mean (% CV)” value [6] was 14.9 ng/mL, the “AUClast (0-24 h), Geo Mean (% CV)” value (Regimen 2A 1 mg, Day 1 single dose, solid malignancies, N = 1) was 134.3 ng·h/mL and the “AUClast (0-24 h), Geo Mean (% CV)” value [7] was 109.3 (6.0) ng * hr/mL. For the same compound, the “Cmax, Geo Mean (% CV)” value [7] was 17.5 (4.9) ng/mL, the “AUClast (0-24 h), Geo Mean (% CV)” value (Regimen 2A 2 mg, Day 1 single dose, solid malignancies, N = 2) was 169.1 (31.5) ng * hr/mL and the “AUClast (0-24 h), Geo Mean (% CV)” value [8] was 155.0 (21.7) ng * hr/mL. The “Cmax, Geo Mean (% CV)” value [8] was 25.6 (23.9) ng/mL, the “Cmax, Geo Mean (% CV)” value (Regimen 2A 4 mg, Day 1 single dose, solid malignancies, N = 4) was 17.6 (22.8) ng/mL and the “AUClast (0-24 h), Geo Mean (% CV)” value (Regimen 2A 7.5 mg, Day 1 single dose, solid malignancies, N = 4) was 598.1 (49.8) ng * hr/mL. The “AUClast (0-24 h), Geo Mean (% CV)” value [9] was 688.8 (29.2) ng * hr/mL, the “Cmax, Geo Mean (% CV)” value [9] was 106.0 (27.9) ng/mL and the “AUClast (0-24 h), Geo Mean (% CV)” value [10] was 1301.6 (71.0) ng * hr/mL. The “Cmax, Geo Mean (% CV)” value [10] was 91.5 (56.9) ng/mL, the “accumulation upon daily dosing” value (daily dosing) was “limited accumulation” and the accumulation (daily dosing regimen) was “less than 2 fold”. For the same compound, the “steady-state reached by” value (daily dosing regimen) was ≤ 8 days, the Tmax (human, plasma, oral, 1 mg, Regimen 2A 1 mg daily, Day 14, solid malignancies, N = 1, read-out: Tmax, median) was 4 h and the Cmax (human, plasma, oral, 1 mg, Regimen 2A 1 mg, Day 1 single dose, solid malignancies, N = 1) was 7.9 ng/mL. The Tmax (human, plasma, oral, 1 mg, Regimen 2A 1 mg, Day 1 single dose, solid malignancies, N = 1, read-out: Tmax, median) was 8 h, the Tmax (human, plasma, oral, 2 mg, Regimen 2A 2 mg daily, Day 14, solid malignancies, N = 2, read-out: Tmax, median) was 3.9 h and the Cmax (human, plasma, oral, 2 mg, Regimen 2A 2 mg, Day 1 single dose, solid malignancies, N = 2) was 12 ng/mL. It also gave a Tmax (human, plasma, oral, 2 mg, Regimen 2A 2 mg, Day 1 single dose, solid malignancies, N = 2, read-out: Tmax, median) of 3.4 h, a Tmax (human, plasma, oral, 4 mg, Regimen 2A 4 mg daily, Day 14, solid malignancies, N = 3, read-out: Tmax, median) of 4 h and an AUC(0-t) (human, plasma, oral, 4 mg, Regimen 2A 4 mg, Day 1 single dose, solid malignancies, N = 4) of 193 ng·h/mL. The Tmax (human, plasma, oral, 4 mg, Regimen 2A 4 mg, Day 1 single dose, solid malignancies, N = 4, read-out: Tmax, median) was 2.5 h, the AUC(0-t) [11] was 222 ng·h/mL and the Cmax [11] was 36.1 ng/mL. The Tmax (human, plasma, oral, 7.5 mg, Regimen 2A 7.5 mg daily, Day 14, solid malignancies, N = 2, read-out: Tmax, median) was 3.9 h, the Cmax (human, plasma, oral, 7.5 mg, Regimen 2A 7.5 mg, Day 1 single dose, solid malignancies, N = 4) was 39 ng/mL and the Tmax (human, plasma, oral, 7.5 mg, Regimen 2A 7.5 mg, Day 1 single dose, solid malignancies, N = 4, read-out: Tmax, median) was 5.8 h. It also gave a Tmax (human, plasma, oral, 12.5 mg, Regimen 1A 12.5 mg, Day 1 single dose, solid malignancies, N = 1, read-out: Tmax, median) of 3.2 h, a Tmax (human, plasma, oral, 15 mg, Regimen 2A 15 mg daily, Day 14, solid malignancies, N = 4, read-out: Tmax, median) of 3 h and a Tmax (human, plasma, oral, 15 mg, Regimen 2A 15 mg, Day 1 single dose, solid malignancies, N = 4, read-out: Tmax, median) of 3.1 h. The AUC(0-t) [12] was 1260 ng·h/mL, the Cmax [12] was 214 ng/mL and the Tmax (human, plasma, oral, 20 mg, Regimen 2A 20 mg daily, Day 14, solid malignancies, N = 4, read-out: Tmax, median) was 4 h. The AUC(0-t) [13] was 2300 ng·h/mL, the Cmax [13] was 164 ng/mL and the Tmax (human, plasma, oral, 20 mg, Regimen 2A 20 mg, Day 1 single dose, solid malignancies, N = 5, read-out: Tmax, median) was 2 h. The Cmax (human, plasma, oral, 25 mg, Regimen 1A 25 mg, Day 1 single dose, solid malignancies, N = 1) was 100 ng/mL, the Tmax (human, plasma, oral, 25 mg, Regimen 1A 25 mg, Day 1 single dose, solid malignancies, N = 1, read-out: Tmax, median) was 2.1 h and the Tmax (human, plasma, oral, 50 mg, Regimen 1A 50 mg, Day 1 single dose, solid malignancies, N = 4, read-out: Tmax, median) was 3 h. The half-life (human, plasma, oral, 50 mg, Regimen 1A 50 mg, Day 1 single dose, solid malignancies, N = 4, read-out: T½, Geo Mean (% CV) (converted)) was 11.8 h, the half-life (human, plasma, oral, 100 mg, Regimen 1A 100 mg, Day 1 single dose, solid malignancies, N = 3, read-out: T½, Geo Mean (% CV) (converted)) was 16.3 h and the Tmax (human, plasma, oral, 100 mg, Regimen 1A 100 mg, Day 1 single dose, solid malignancies, N = 4, read-out: Tmax, median) was 3.5 h. For the same compound, the half-life (human, plasma, oral, 200 mg, Regimen 1A 200 mg, Day 1 single dose, solid malignancies, N = 4, read-out: T½, Geo Mean (% CV) (converted)) was 15.1 h, the Tmax (human, plasma, oral, 200 mg, Regimen 1A 200 mg, Day 1 single dose, solid malignancies, N = 5, read-out: Tmax, median) was 3 h and the half-life (human, plasma, oral, 250 mg, Regimen 1A 250 mg, Day 1 single dose, solid malignancies, N = 5, read-out: T½, Geo Mean (% CV) (converted)) was 15.3 h. For the same compound, the AUC(0-t) [14] was 23900 ng·h/mL, the Cmax [14] was 1070 ng/mL and the Tmax (human, plasma, oral, 250 mg, Regimen 1A 250 mg, Day 1 single dose, solid malignancies, N = 6, read-out: Tmax, median) was 3.5 h. For the same compound, the half-life (human, plasma, oral, 350 mg, Regimen 1A 350 mg, Day 1 single dose, solid malignancies, N = 4, read-out: T½, Geo Mean (% CV) (converted)) was 15.1 h, the AUC(0-t) [15] was 50500 ng·h/mL and the Cmax [15] was 1940 ng/mL. For the same compound, the Tmax (human, plasma, oral, 350 mg, Regimen 1A 350 mg, Day 1 single dose, solid malignancies, N = 5, read-out: Tmax, median) was 4.1 h, the half-life (human, plasma, oral, after Day 1 single dose (50-350 mg), read-out: Median half-life) was 13.7 to 23.1 h and the half-life (human, plasma, oral, after a single dose (50 to 350 mg), read-out: Mean T½) was 11.8 to 16.3 h. For the same compound, the Vd/F (human, plasma, oral, population PK, 1-compartment model, read-out: apparent volume of distribution of the central compartment (Vc/F), mean population estimate) was 119 L, the Tmax (human, plasma, po, across dose range 2 to 350 mg, read-out: median time to reach maximum plasma concentrations (Tmax)) was 2 to 5.8 h and the “dose proportionality of PK (AUClast and Cmax)” value was “approximately dose proportional”. For the same compound, the “dose proportionality of PK (AUClast and Cmax)” value (listed as NVP-HDM201) was “no major deviations from dose proportionality”, the “inter-individual variability of CL/F” value (population PK) was 48% and the “inter-individual variability of Vc/F” value (population PK) was 30%. For the same compound, the “apparent oral clearance (CL/F), mean population estimate” value (population PK, 1-compartment model) was 6.18 L/h and the “patients with estimated average concentration per cycle near or above tumor stasis concentration” value (regimen 1B 120 mg, out of 9 patients) was 7.
